Reference: US20090148506A1, “LIPOSOMAL FORMULATIONS COMPRISING SECONDARY AND TERTIARY AMINES AND METHODS FOR PREPARING THEREOF” (priority 2005, published 2009)
“Also recorded” adds a separate entry of the source.

How the values were obtained:
Format in all cases: physicochemical
[1] = Liposomal drug loading (encapsulation) at 50° C., Sephadex G-50 spin column, UV assay; details: for liposomal encapsulation (result in words): 50° C. (FIG. 2); for increase of irinotecan/lipid molar ratio: TEA containing liposomes (FIG. 10); for irinotecan encapsulation efficiency: 50° C.
Method: The lipids were labeled with trace amounts of ^3H-cholesteryl hexadecyl ether, a non-exchangeable, non-metabolizeable lipid marker to allow liposome quantitation by scintillation counting. The solvent was evaporated under a stream of nitrogen and dried under vacuum for at least 4 hours. […] The mean size distribution of the resulting large unilamellar vesicles (80-120 nm) was determined using a Nicomp submicron particle sizer model 370 (Nicomp, Santa Barbara, Calif.). For irinotecan loading, the solutions of irinotecan were made by dissolving the drug either in water at 50° C. or in sucrose phosphate buffer (300 mM sucrose, 40 mM phosphate) at room temperature. When necessary, the pH of the solution was adjusted to the desired value using NaOH. The final concentration of irinotecan was 15 mM. […] The precipitate was isolated by centrifugation (12000 rpm, 15 min) and was solubilized with 2 mM EDTA in water. Similar preparations were employed for daunorubicin. For liposomal loading, the drug solution and the liposomes were incubated separately at 50° C. for approximately five minutes to equilibrate the temperature. […] Aliquots of 75 μl were applied to a Sephadex G-50 spin column. The columns were prepared by adding glass wool to a 1 ml syringe and Sephadex G-50 beads hydrated in sucrose phosphate buffer (300 mM sucrose, 40 mM phosphate, pH 7.0). The columns were packed by spinning at 290×g for 1 minute. Following addition of the sample to the column, the liposome fraction was collected in the void volume by centrifuging at 515×g for 1 minute. Aliquots of the spin column eluant and the pre-column solution were taken and analyzed by liquid scintillation counting to determine the lipid concentration at each time point. The irinotecan concentration in each liposomal fraction was determined using a UV-based assay. […] The samples were cooled to ambient temperature. The absorbance at 370 nm was measured and compared to a standard curve. The concentration of TEA was determined by HPLC.

[2] = Irinotecan loading into diethanolamine buffered liposomes at 50° C.; details: 100 mM copper gluconate/140 mM diethanolamine pH 7.0 inside, sucrose/phosphate/EDTA buffer outside, target drug to lipid ratio 0.1 (FIG. 13)
Method: DSPC, cholesterol and DSPG were weighed out into capped scintillation vials. DSPC was dissolved in chloroform at 60 mg/ml, cholesterol was dissolved in chloroform at 25 mg/ml, and DSPG was dissolved in chloroform:methanol:water (50/10/1) at 30 mg/ml. The lipids were then combined in the appropriate proportions. […] A stream of N2 gas, while heating the mixture, was used to remove solvent. The resulting lipid films were left under vacuum for a few minutes, then redissolved in chloroform. The drying process was then repeated, and the lipid films were allowed to dry on a vacuum pump for 4+hours. […] MLVs were extruded at 70° C. through two 100 nm filters for a total of eight passes without difficulty. The liposomes were then allowed to cool down to room temperature. Samples were buffer exchanged into 300 mM sucrose/20 mM phosphate/10 mM EDTA, pH 7.0 by tangential flow. […] Clinical material of Irinotecan was used for a Irinotecan stock. Drug and liposome samples were pre-heated separately at 50° C. for 5 minutes, then combined at t=0. […] Samples of the spun column eluant and the pre-column solution were counted by liquid scintillation counting to determine the lipid concentration at each time point. Irinotecan concentrations were determined using a UV assay. […] Irinotecan is quantitated by absorbance at 370 nm against a standard curve.

[3] = Lactone/carboxylate form of irinotecan in solution (FTIR, HPLC)
From the text: FTIR measurements were made at room temperature in transmission mode using a Nicolet Nexus 870 spectrometer (Nicolet Instrument, Madison, Wis., USA) equipped with a liquid nitrogen-cooled mercury cadmium telluride detector. […] Inc. Buena, N.J.). The sample was dried with a stream of nitrogen and left overnight in a desiccator before recording the spectra. For each spectrum, 250 scans were co-added at a 4 cm^−1 resolution, using a Happ-Genzel apodization. Data analysis was done using the Grams AI software (Galactic Industries, Salem, N.H., USA). The second derivative of the spectra was performed to determine the frequency of the components of unresolved bands. Vibrational spectroscopy was used to further investigate the potential interaction between irinotecan and copper in free solution. […] Since irinotecan has several possible binding sites, tentative assignment of the bands of the spectra to its functional groups was performed in order to identify which group is involved in an interaction with copper gluconate/TEA. The C═O stretching absorption bands appear in the region of 1870-1540 cm^−1. The position of the carbonyl bands is affected by several factors including intermolecular and intramolecular hydrogen bonding. […] This conversion to the carboxylate form was confirmed by HPLC analysis. […]

| Structure (SMILES) | liposomal encapsulation (result in words) ([1]; triethanolamine hydrochloride internal solution, pH 7.0) | liposomal encapsulation (result in words) ([1]; triethanolamine/sodium gluconate/HCl internal solution, pH 7.0) | liposomal encapsulation (result in words) [2] | form of irinotecan in solution ([3]; pH 7.0 (data not shown)) | form of irinotecan in solution ([3]; pH 8.7, confirmed by HPLC) | liposomal loading (result in words) ([1]; TEA buffered internal solution pH 7.0, external phosphate buffer pH 7.0, 50° C. (FIG. 1)) | increase of irinotecan/lipid molar ratio ([1]; after 2 min at 50° C.) | increase of irinotecan/lipid molar ratio ([1]; after 60 min at 50° C.) | irinotecan encapsulation efficiency ([1]; copper gluconate/TEA containing liposomes (100 mM copper gluconate/180 mM TEA, pH 7.0)) | irinotecan concentration inside the liposomes upon encapsulation ([1]; intra-liposomal) [mM] | irinotecan encapsulation efficiency ([1]; liposomes containing 10 mM sodium gluconate/180 mM TEA, pH 7.0) [%] | irinotecan encapsulation efficiency ([1]; liposomes containing TEA/phosphate buffer (150 mM TEA, 95 mM phosphate, pH 7.0), 0.2:1 drug to lipid (mol:mol)) | drug loading (result in words) ([1]; liposomes containing copper gluconate adjusted to pH 7.0 with NaOH (no TEA)) | drug encapsulation (result in words) ([1]; liposomes containing sucrose phosphate buffer (no TEA)) | reduction of the amount of drug loading ([1]; liposomes with 100 mM copper gluconate, TEA decreased to 90 mM, pH 7.0 (FIG. 11)) [%] | irinotecan encapsulation ([1]; liposomes with 100 mM copper gluconate, TEA increased to 270 mM, pH 7.0 (FIG. 11)) |
| --- | --- | --- | --- | --- | --- | --- | --- | --- | --- | --- | --- | --- | --- | --- | --- | --- |
| COc1cccc2c1C(=O)c1c(O)c3c(c(O)c1C2=O)C[C@@](O)(C(C)=O)C[C@@H]3O[C@H]1C[C@H](N)[C@H](O)[C@H](C)O1 [daunorubicin] | successfully encapsulated | successfully encapsulated |  |  |  |  |  |  |  |  |  |  |  |  |  |  |
| CCc1c2c(nc3ccc(OC(=O)N4CCC(N5CCCCC5)CC4)cc13)-c1cc3c(c(=O)n1C2)COC(=O)[C@]3(O)CC [irinotecan] |  |  | successfully encapsulated | predominantly in its lactone form | primarily in the carboxylate form | successfully loaded | 0.08 μmol irinotecan/μmol lipid | 0.13 μmol irinotecan/μmol lipid | approximately 70% | > 50 | 70 | approximately 70% | negligible; also recorded: no loading | no drug encapsulation | 50 | approximately 90% |
